Data taken from patent US20230040415A1 (PureTech LYT 100, Inc., priority 2020, published 2023).

Key:
[1] = MAD study adverse event profile; type: in vivo
Source text: All subjects in Part 1 and Part 2 will be monitored for safety (including assessment of chemistry, haematology and urinalysis parameters, electrocardiograms [ECGs], vital signs and adverse events [AEs]) and samples will be collected for assessment of PK at predefined time points pre and post-dose as delineated in the Schedule of Events.

[2] = tested on: Primary Mouse Lung Fibroblasts; experiment: Survival / TGF-β-induced proliferation of Primary Mouse Lung Fibroblasts (MTT); type: cell-based; settings: 500 μM, 72 hrs
Procedure: Primary Mouse lung fibroblast were prepared as follows. One lung was removed from 2 months old male BalbC Mouse, perfused with sterile PBS, minced and incubated in 2 ml of serum free Dulbecco's Modified Eagle's Medium (DMEM) containing 100 μg/ml of collagenase I for one hour at 37° C. Each sample was centrifuged at 1500 r.p.m (revolution per minute) for 5 minutes, washed three times with PBS and the final cellular pellet was resuspended in DMEM supplemented with 10% serum and Pen/Strep, and incubated in 150 mm plates at 37° C. with 80% humidity and […]. The growth medium was removed and fresh medium was added every day for 10 days.
At the end of 10-day incubation period above, lung fibroblasts were confluent. […] One hundred μL of the growth medium was removed and 20 μL of MTT stock solution (prepared in PBS at 5.5 mg/ml concentration) was added and cells were incubated for 4 hrs, then 100 μl of DMSO was added, and absorbance of developed color was monitored at 540-690 nm.

[3] = tested on: Primary Mouse Lung Fibroblasts; experiment: TGF-β-induced insoluble collagen synthesis, 6-well plate format (Sircol); type: cell-based; settings: Fibroblast, TGF-β 5 ng/ml, 72 hrs, p=0.026, read-out: inhibition of TGF-β-induced total collagen
Procedure: One hundred thousand Primary Mouse Lung Fibroblasts were plated in 6-well plates and incubated in complete DMEM until they reached confluency. The incubation medium was removed and complete DMEM containing Prolin (10 μM) and Ascorbic acid (20 μg/ml) was added.
Supernatant was removed, cells were washed with cold PBS, 1 ml Sircol reagent was added. The Sircol reagent contains the collagen binding dye Sirius red. The cells were scraped off with Sircol reagent and samples were shaken for 5 h at room temperature (RT), centrifuged at 10,000 rpm for 5 min, supernatant was removed, the pellet was washed in 0.5 M acetic acid to remove unbound dye, and recentrifuged at 10,000 rpm for 5 min, supernatant was removed and the final pellet was dissolved in 1 ml 0.5M NaOH and shaken at RT for 5 h. A sample of 100 μl of resultant solution was placed in 96-well. The color reaction was assessed by optical density at a wave length of 600 nm.

L929 cells [4] = experiment: TGF-induced collagen synthesis in L929 cells, 96-well plate format (SIRCOL); type: cell-based; settings: 500 μM
Procedure: Five thousand L929 cells were plated in complete DMEN and incubated until confluency for 3 days. Medium was removed and complete DMEM containing Prolin (20 μg/ml) and ascorbic acid (10 μM) was added. […] Cells were further incubated for 72 hrs. Supernatant was removed, 0.5% gluteraldehyde was added for 30 min at RT, removed, washed 3× with dd water, 0.5 M acetic acid was added for 30 min at RT, removed, washed with water, air dried and 100 μl SIRCOL dye was added for 5 h at RT. Dye was removed, plate was washed extensively under running water, air dried and 200 μl of 0.5 M NaOH was added, plates were shaken at RT for 1 h, and OD was determined at 600 nm.

L929 cells [5] = experiment: TGF-induced soluble collagen synthesis in L929 cells (ELISA); type: cell-based; settings: 500 μM
Procedure: Five thousand L929 cells were plated in complete DMEN and incubated until confluency for 3 days. Medium was removed and complete DMEM containing Prolin (20 μg/ml) and ascorbic acid (10 μM) was added. […] Cells were further incubated for 72 hrs. 200 μl supernatant of 96-well SIRCOL plate was placed onto ELISA plate and incubated 0/N. Next day, supernatant was removed and 100 ul of 1% BSA in PBST was added and incubated for 2 h at RT, BSA was removed, plate was washed 3× with 200 μl of PBST, and anti-collagen type I a.b was added at 1:2000 dilution (prepared in %1 BSA in PBST), incubated at RT for 1 h, primary a.b was removed, plate was washed 3× with 200 μl PBST, and secondary anti-goat HRP was added at 1:2000 dilution, incubate at RT for 1 h, removed, plate was washed 3× with 200 μl PBST and 100 μl of TMB solution was added for color development for 15 min, then 100 μl of 2 N H2SO4 was added to stop the reaction and O.D of developed yellow color was determined at 450 nm.

[2H]C([2H])([2H])c1ccc(=O)n(-c2ccccc2)c1 [LYT-100, 5-(methyl-d3)-1-phenylpyridin-2-(1H)-one]
tolerability of 750 mg dosing ([1]; 750 mg BID): surprisingly well tolerated
most common adverse events ([1]; blinded MAD data): headache and mild abdominal discomfort
severity of adverse events ([1]; blinded MAD data, 100-1000 mg BID, 5 days): mild and transient
survival of PMLF alone ([2]; without TGF-β): did not affect the survival
diminution of TGF-β-induced proliferation of PMLF ([2]; TGF-β 5 ng/ml, not statistically significant (p=0.19)): 10%
inhibition at 500 µM [3]: 15%
total collagen level in the absence of TGF-β induction (L929 cells [4]): significantly inhibited or reduced
TGF-β-induced total collagen levels (L929 cells [4]; TGF-β 5 ng/ml, 72 hrs): significantly inhibited or reduced
soluble collagen levels in the absence of TGF-β-induction (L929 cells [5]): significantly reduced
TGF-β-induced soluble collagen levels (L929 cells [5]; TGF-β 5 ng/ml, 72 hrs): significantly inhibits
